The values below come from US20260373138A1, “COMPOUNDS WITH ANTIFUNGAL PROPERTIES” (priority 2023, published 2026).

The subject of assay [1] is Aspergillus fumigatus SrbA pathway. Conditions: phenotype of SrbA pathway inhibition, previously published; cited from earlier work.
The test system of assay [2] is A. fumigatus CEA10 reference strain. The assay can be described thus: Fluconazole potentiator screen: MIC by CLSI microbroth dilution with and without fluconazole. Conditions: for MIC: Aspergillus fumigatus, read-out: MIC (ug/mL) (−) Fluc; for MIC / MIC (ug/mL) (+) Fluc: 18 h; for potency / potentiation of fluconazole (in words): structure-activity statements, fluconazole potentiator screen; for MIC (ug/mL) (+) Fluc: with 32 μg/ml fluconazole, normoxia, GMM, 37 °C. Type of assay: cell-based, Aspergillus fumigatus. Background: Dilution methods test growth across graded concentrations, often in twofold steps.

Where only a bound is given, the exact number is not on record here.

`OC(Cn1cncn1)(Cn1cncn1)c1ccc(F)cc1F` [fluconazole]: the MIC to fluconazole in assay [1] is less than 8 µg/mL.
Regarding `O=C(c1ccsc1)N1CCC(Cc2ccc(COc3cc[n+]([O-])cc3)cc2)CC1` [MBX-8191], in assay [2], the MIC was more than 20 µg/mL, the “potency / potentiation of fluconazole (in words)” value (from here on “potency / potentiation”) is given as “complete loss of activity” and the “MIC (ug/mL) (+) Fluc” value is more than 20 µg/mL.
Take `O=S(=O)(c1ccccn1)N1CCC2(CC1)CC(CCOc1ccncc1)CCO2` (stereo not drawn) [MBX-7873]: in assay [2], the MIC is more than 16 µg/mL and the “MIC (ug/mL) (+) Fluc” value was more than 16 µg/mL.
Taken in the same sequence, the figures for `O=C(c1ccsc1)N1CCC(Cc2ccc(COc3ccc4scnc4c3)cc2)CC1` [MBX-8086] were more than 19 µg/mL and more than 19 µg/mL.
For `N#Cc1cccc(S(=O)(=O)N2CCC3(CC2)CC(CCOc2ccncc2)CCO3)c1` (stereo not drawn) [MBX-7910] the same measures were more than 88 µg/mL and 22.00 µg/mL.
Taken in the same sequence, the figures for `O=S(=O)(c1ccc(Cl)s1)N1CCC(Cc2ccc(CN3CCOCC3)cc2)CC1` [MBX-8193] were 0.63 µg/mL and 0.18 µg/mL.
For the compound `O=S(=O)(NC1CCC(Cc2ccc(CN3CCOCC3)cc2)CC1)c1ccc(F)cc1` (stereo not drawn) [MBX-8283], in assay [2], the MIC was more than 22 µg/mL and the “MIC (ug/mL) (+) Fluc” value is more than 22 µg/mL.
Taken in the same sequence, the figures for `O=C(c1ccsc1)N1CCC(Cc2ccc(COc3ccnc(Cl)c3)cc2)CC1` [MBX-8253] were more than 21 µg/mL and more than 21 µg/mL.
Regarding `O=S(=O)(c1ccsc1)N1CCC(Cc2ccc(COc3ccncc3)cc2)CC1` [MBX-7822], in assay [2], the MIC is more than 6 µg/mL; the “potency / potentiation” value was “the only linker reasonably tolerated, apart from the amide”; the “MIC (ug/mL) (+) Fluc” value came to 1.07 µg/mL.
For `O=C(c1ccc(O)cc1)N1CCC(Cc2ccc(COc3ccncc3)cc2)CC1` [MBX-7802], in assay [2], the MIC was more than 16 µg/mL and the “MIC (ug/mL) (+) Fluc” value was more than 16 µg/mL.
For the compound `O=S(=O)(N1CCOCC1)N1CCC2(CC1)CC(CCOc1ccncc1)CCO2` (stereo not drawn) [MBX-7950], in assay [2], the MIC came out at 26.8 µg/mL, the “potency / potentiation” value is “complete loss of activity” and the “MIC (ug/mL) (+) Fluc” value was 13.40 µg/mL.
As to `O=S(=O)(c1ccccc1F)N1CCC2(CC1)CC(CCOc1ccncc1)CCO2` (stereo not drawn) [MBX-7869], in assay [2], the MIC is more than 17 µg/mL and the “MIC (ug/mL) (+) Fluc” value turned out to be 3.07 µg/mL.
For the compound `O=S(=O)(c1ccc(C(F)(F)F)nc1)N1CCC2(CC1)CC(CCOc1ccncc1)CCO2` (stereo not drawn) [MBX-7913], in assay [2], the MIC stood at 2.41 µg/mL, the “potency / potentiation” value is given as “the most potent” and the “MIC (ug/mL) (+) Fluc” value stood at 0.96 µg/mL.
`CN1CCc2cc(CC3CCN(S(=O)(=O)c4ccc(F)cc4)CC3)ccc2C1` [MBX-8700]: in assay [2], the MIC was 8.97 µg/mL and the “MIC (ug/mL) (+) Fluc” value came to 1.26 µg/mL.
Taken in the same sequence, the figures for `O=S(=O)(c1ccccc1)N1CCC2(CC1)CC(CCOc1ccncc1)CCO2` (stereo not drawn) [MBX-7868] were 8.33 µg/mL and 2.08 µg/mL.
Consider `CC(C)(C)c1ccc(C(=O)N2CCC(Cc3ccc(COc4ccncc4)cc3)CC2)cc1` [MBX-8094], for which, in assay [2], the MIC is more than 22 µg/mL and the “MIC (ug/mL) (+) Fluc” value was more than 22 µg/mL.
Taken in the same sequence, the figures for `COc1ccc(C(=O)N2CCC(Cc3ccc(COc4ccncc4)cc3)CC2)cc1` [MBX-7728] were 8.3 µg/mL and 8.30 µg/mL.
For `O=C(c1ccc(Cl)s1)N1CCC2(CC1)CC(CCOc1ccncc1)CCO2` (stereo not drawn) [MBX-8433], in assay [2], the MIC was found to be 2.53 µg/mL and the “MIC (ug/mL) (+) Fluc” value was determined as 0.84 µg/mL.
On to `O=C(c1cccc(F)c1)N1CCC(Cc2ccc(CN3CCOCC3)cc2)CC1` [MBX-8032], for which, in assay [2], the MIC amounted to 3.1 µg/mL and the “MIC (ug/mL) (+) Fluc” value turned out to be 8.80 µg/mL.
For `c1csc(CN2CCC3(CC2)CC(CCOc2ccncc2)CCO3)c1` (stereo not drawn) [MBX-7955] the same measures were more than 74 µg/mL and more than 74 µg/mL.
As for `COc1cccc(S(=O)(=O)N2CCC3(CC2)CC(CCOc2ccncc2)CCO3)c1` (stereo not drawn) [MBX-7952], in assay [2], the MIC came to 11.2 µg/mL and the “MIC (ug/mL) (+) Fluc” value was found to be 2.79 µg/mL.
On to `COC(=O)c1ccc(C(=O)N2CCC(Cc3ccc(COc4ccncc4)cc3)CC2)cc1` [MBX-8093], for which, in assay [2], the MIC is more than 22 µg/mL and the “MIC (ug/mL) (+) Fluc” value was more than 20 µg/mL.
On to `O=S(=O)(c1cccs1)N1CCC2(CC1)CN(CCOc1ccncc1)CCO2` [MBX-8310], for which, in assay [2], the MIC is 21 µg/mL and the “MIC (ug/mL) (+) Fluc” value worked out at 5.20 µg/mL.
`O=C(c1ccc2c(c1)OCCO2)N1CCC(Cc2ccc(COc3ccncc3)cc2)CC1` [MBX-7772]: in assay [2], the MIC was 12.6 µg/mL and the “MIC (ug/mL) (+) Fluc” value was found to be 12.60 µg/mL.
Taken in the same sequence, the figures for `Cn1nccc1S(=O)(=O)N1CCC2(CC1)CC(CCOc1ccncc1)CCO2` (stereo not drawn) [MBX-7914] were 8.34 µg/mL and 3.31 µg/mL.
Turning to `O=S(=O)(C1CCC1)N1CCC2(CC1)CC(CCOc1ccncc1)CCO2` (stereo not drawn) [MBX-7915], in assay [2], the MIC was 39.5 µg/mL, the “potency / potentiation” value is given as “complete loss of activity” and the “MIC (ug/mL) (+) Fluc” value turned out to be 49.70 µg/mL.
For `O=C(c1ccsc1)N1CCC(Cc2ccc(Oc3ccncc3)cc2)CC1` [MBX-8025] the same measures were more than 37 µg/mL, “not optimal for potentiation of fluconazole” and more than 37 µg/mL.
For the compound `O=C(c1ccc2sccc2c1)N1CCC(Cc2ccc(COc3ccncc3)cc2)CC1` [MBX-8096], in assay [2], the MIC was more than 22 µg/mL and the “MIC (ug/mL) (+) Fluc” value was more than 22 µg/mL.
Taken in the same sequence, the figures for `Nc1cc(OCc2ccc(CC3CCN(C(=O)c4ccsc4)CC3)cc2)ccn1` [MBX-8226] were 20 µg/mL and 11.00 µg/mL.
Regarding `COc1ccc(S(=O)(=O)N2CCC3(CC2)CC(CCOc2ccncc2)CCO3)cc1` (stereo not drawn) [MBX-7953], in assay [2], the MIC was 5.58 µg/mL and the “MIC (ug/mL) (+) Fluc” value amounted to 1.11 µg/mL.
Taken in the same sequence, the figures for `O=C(c1ccccc1Cl)N1CCC(Cc2ccc(COc3ccncc3)cc2)CC1` [MBX-8091] were more than 21 µg/mL and more than 21 µg/mL.
In the case of `Cc1ccc(S(=O)(=O)N2CCC3(CC2)CC(CCOc2ccncc2)CCO3)cn1` (stereo not drawn) [MBX-8143], in assay [2], the MIC was found to be 10.8 µg/mL and the “MIC (ug/mL) (+) Fluc” value is 3.81 µg/mL.
With `N#Cc1ccc(C(=O)N2CCC(Cc3ccc(COc4ccncc4)cc3)CC2)cc1` [MBX-8088], in assay [2], the MIC stood at 6.5 µg/mL, the “potency / potentiation” value is recorded as “antagonistic effect” and the “MIC (ug/mL) (+) Fluc” value came out at 14.50 µg/mL.
`O=S(=O)(c1cccs1)N1CCC2(CC1)CC(CCN1CCOCC1)CCO2` (stereo not drawn) [MBX-8245]: in assay [2], the MIC was more than 20 µg/mL and the “MIC (ug/mL) (+) Fluc” value is more than 20 µg/mL.
For `O=C(c1ccsc1)N1CCC(Cc2ccc(COc3ccncc3)nc2)CC1` [MBX-8323] the same measures were 2.4 µg/mL and 1.20 µg/mL.
With `O=S(=O)(c1ccc(F)cc1)N1CCC(Cc2ccc(CN3CCOCC3)cc2)CC1` [MBX-8145], in assay [2], the MIC is 0.3 µg/mL and the “MIC (ug/mL) (+) Fluc” value is 0.08 µg/mL. The “increase in potentiation of fluconazole” value in assay [2] (morpholine series, para-fluorophenyl substitution) is reported as 6 fold.
With `N=S(=O)(c1ccc(F)cc1)N1CCC(Cc2ccc(CN3CCOCC3)cc2)CC1` (stereo not drawn) [MBX-8389], in assay [2], the MIC was more than 43 µg/mL and the “MIC (ug/mL) (+) Fluc” value is more than 43 µg/mL.
As for `O=C(c1cscn1)N1CCC(Cc2ccc(COc3ccncc3)cc2)CC1` [MBX-8099], in assay [2], the MIC came out at 7.81 µg/mL and the “MIC (ug/mL) (+) Fluc” value turned out to be 3.10 µg/mL. In addition, in assay [2] (analogs of MBX-7591), the “loss in potentiating the fluconazole” value is recorded as “more than 4 fold”.
For the compound `O=C(c1ccsc1)N1CCC(Cc2ccc(COc3ccncn3)cc2)CC1` [MBX-8529], in assay [2], the MIC was determined as 9.84 µg/mL and the “MIC (ug/mL) (+) Fluc” value was more than 15 µg/mL.
Taken in the same sequence, the figures for `O=S(=O)(NC1CC2(CC(Cc3ccc(CN4CCOCC4)cc3)C2)C1)c1ccc(F)cc1` (stereo not drawn) [MBX-8311] were 19 µg/mL and 22.00 µg/mL.
With `O=C(O)c1ccc(C(=O)N2CCC(Cc3ccc(COc4ccncc4)cc3)CC2)cc1` [MBX-8138], in assay [2], the MIC is more than 21 µg/mL and the “MIC (ug/mL) (+) Fluc” value was more than 21 µg/mL.
